Laboratory results taken from PMC10958125 (Clinical and Translational Medicine, 2024).
Like-named read-outs stand apart in the source and are kept apart here.

Key:
[1] = Plasma lycopene levels (HPLC); type: in vivo, human
[2] = system: metastatic prostate cancer patients; type: in vivo; settings: lycopene alone for 2 weeks from day 1, dose escalation cohort
[3] = system: Insulin‐like growth factor binding protein 3 (IGFBP‐3); assay: Plasma IGFBP-3, sandwich ELISA; type: in vivo, human; settings: all lycopene doses, any time point
Experimental: Insulin‐like growth factor binding protein 3 (IGFBP‐3) levels were measured in duplicate by sandwich ELISA assays using kits from eBioscience in subjects 1–12 of the dose escalation cohort.

[4] = system: Vascular endothelial growth factor A (VEGF‐A); assay: Plasma VEGF-A, sandwich ELISA; type: in vivo, human
Experimental: (§1) Vascular endothelial growth factor A (VEGF‐A) was measured on Ethylenediaminetetraacetic acid plasma from subjects 1−12 of the dose escalation cohort, with a commercial sandwich ELISA kit (R&D Systems). Circulating endothelial cells (CECs) were measured with an 11‐colour flow cytometry scheme using a method adopted from a previously published protocol.[36] The definition for CECs was viable cells (alive, intact nucleus) that were positive for surface CD31 and CD34, and that were negative for haematopoietic marker CD45. Additional exploratory markers were CD105 and CD146. […] Samples were collected before the scheduled docetaxel dose for that day.
(§2) Both VEGF‐A and CEC levels were analysed using linear mixed‐effects regression models with a subject‐level random effect included to account for within‐subject correlation. Models were adjusted for the individual's baseline levels in both outcomes. All analyses and hypothesis testing were completed on the log scale and back transformed to estimate fold changes. Analysis was completed in the R environment,[37] with all tests level α = .05. The VEGF‐A levels were near‐linear over time, so time was treated as continuous, and slopes between groups were compared using Wald tests. Levels of CECs were non‐linear over time; therefore, time was treated as a fixed factor in the CEC model, with a time‐by‐dose interaction effect. Pairwise tests of differences between the CEC model‐based estimated means at each time point after zero were completed using the emmeans package.[38] As these analyses are exploratory/hypothesis generating, no multiple comparison adjustments have been made. Simple Bonferroni adjustments would lead to p‐value cutoffs of .01 (five comparisons) and .0033 (15 comparisons) for the VEGF‐A and CEC analyses, respectively.

[5] = system: metastatic prostate cancer patients
[6] = target: IGF‐1R (Homo sapiens, UniProt P08069); assay: Ligand-dependent phosphorylation of IGF-1R(Y1131) in PBMCs stimulated ex vivo with rhIGF-1; settings: patients
Description: Briefly, ligand‐dependent phosphorylation of the IGF‐1R was estimated using an ex vivo assay that utilised peripheral blood mononuclear cells (PBMCs). […] The cells were then lysed, and the quantity of phosphoIGF‐1R(Y1131) was estimated by an ELISA assay (Cell Signalling Technologies). Ligand‐dependent phosphorylation was defined as the ratio of pIGF‐1R(Y1131) in ligand‐stimulated PBMCs to the same parameter for unstimulated PBMCs. […] Thus, the changes in the level of ligand‐dependent phosphorylation over time were analysed by both parametric and non‐parametric methods.
Measurement of IGF-1R (Y1131) phosphorylation in PBMNCs after ex vivo ligand treatment. […] The primary analyte was phosphorylation of the IGF-1R on Y1131, measured by ELISA on lysates of PBMCs treated (or not) with recombinant human IGF-1.
Whole blood (10mL) is collected into an ACD (acid citrate-dextrose) Vacutainer®. Peripheral blood mononuclear cells are collected by density gradient centrifugation using LSM Lymphoprep® and an Accuspin® 50mL tube (Sigma). The mononuclear cells are collected, washed x 2 with serum-free RPMI1640 medium, then resuspended in 1mL of RPMI 1640 medium + 0.1% BSA. Cells are then aliquoted into 1mL microcentrifuge tubes, 0.5mL of cells per tube per condition.
Cells are incubated for 1-2hr at 37C, then rhIGF-1 (Peprotech) is added to 50-500ng/mL final concentration. Incubation continues for 15min at 37C.
Cells are then pelleted and washed with 1mL of cold RPMI 1640 medium (no protein).
The cell pellet is lysed with 120mcL of Cell Signalling® ELISA buffer containing phosphatase inhibitors and protease inhibitors. The lysate can be stored at -80C or assayed immediately.
For total protein measurement follow the BCA method (BioRad).
For IGF-1R(Y1131) ELISA (Cell Signalling® #7302) proceed per kit instructions. […]
The standard will be used as a series of 2-fold dilutions, being diluted with assay buffer from the ELISA kit. […] Results will be expressed as X units of pIGF-1R protein per amount of protein in the lysate. The protein is measured by the BCA method, as mcg/mL.

[7] = system: Circulating endothelial cells (CECs); assay: Circulating endothelial cells, flow cytometry; type: in vivo, human
Experimental: as §1, §2

[8] = system: metastatic prostate cancer patients; set-up: method as in PMID 28753384; settings: FIRSTANA trial, cited from earlier work
[9] = human, in vivo
[10] = clinical; settings: human, in vivo, iv, 75 mg/m2
[11] = system: metastatic prostate cancer patients; set-up: method as in PMID 15470213; settings: TAX327 trial, cited from earlier work
[12] = system: metastatic prostate cancer patients; settings: cited from earlier work

Chain of IGF‐1R (P08069 31-1367): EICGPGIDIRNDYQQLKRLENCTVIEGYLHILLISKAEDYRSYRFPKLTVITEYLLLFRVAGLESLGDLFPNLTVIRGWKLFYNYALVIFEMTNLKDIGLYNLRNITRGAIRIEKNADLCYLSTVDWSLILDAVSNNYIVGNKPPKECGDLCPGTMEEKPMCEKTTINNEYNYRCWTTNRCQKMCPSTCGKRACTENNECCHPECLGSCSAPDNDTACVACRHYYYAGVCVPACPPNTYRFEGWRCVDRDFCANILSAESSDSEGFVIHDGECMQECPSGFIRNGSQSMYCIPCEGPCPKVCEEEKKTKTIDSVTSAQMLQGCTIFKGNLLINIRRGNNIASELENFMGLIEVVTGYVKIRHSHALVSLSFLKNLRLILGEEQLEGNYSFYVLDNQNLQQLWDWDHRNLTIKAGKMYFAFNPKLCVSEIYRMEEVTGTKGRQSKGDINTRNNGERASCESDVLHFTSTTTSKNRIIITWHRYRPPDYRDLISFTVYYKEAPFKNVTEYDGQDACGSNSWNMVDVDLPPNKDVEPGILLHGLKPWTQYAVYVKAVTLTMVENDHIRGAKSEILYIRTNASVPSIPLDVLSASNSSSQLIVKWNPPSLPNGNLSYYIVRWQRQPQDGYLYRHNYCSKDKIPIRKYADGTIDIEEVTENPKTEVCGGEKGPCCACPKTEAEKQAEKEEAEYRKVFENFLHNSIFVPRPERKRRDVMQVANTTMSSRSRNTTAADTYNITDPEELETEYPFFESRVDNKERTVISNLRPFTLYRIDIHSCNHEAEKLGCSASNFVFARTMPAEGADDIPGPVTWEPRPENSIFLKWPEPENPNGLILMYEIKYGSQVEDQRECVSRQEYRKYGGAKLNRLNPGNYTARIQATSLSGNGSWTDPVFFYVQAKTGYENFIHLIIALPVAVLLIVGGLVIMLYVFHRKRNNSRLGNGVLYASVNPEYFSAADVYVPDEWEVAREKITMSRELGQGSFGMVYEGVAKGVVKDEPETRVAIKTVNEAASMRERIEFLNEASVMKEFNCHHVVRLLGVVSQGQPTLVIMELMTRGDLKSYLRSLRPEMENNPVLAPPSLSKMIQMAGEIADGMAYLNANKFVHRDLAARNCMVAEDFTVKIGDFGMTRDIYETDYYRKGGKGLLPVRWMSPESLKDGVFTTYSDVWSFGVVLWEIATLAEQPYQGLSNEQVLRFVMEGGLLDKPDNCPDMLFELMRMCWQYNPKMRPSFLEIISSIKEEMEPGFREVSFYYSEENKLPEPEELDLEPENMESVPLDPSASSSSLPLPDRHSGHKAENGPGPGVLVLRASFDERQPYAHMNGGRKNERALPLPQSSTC

Compound: CC(C)=CCC/C(C)=C/C=C/C(C)=C/C=C/C(C)=C/C=C/C=C(C)/C=C/C=C(C)/C=C/C=C(\C)CCC=C(C)C [lycopene]
- Increase of plasma lycopene concentration from baseline ([1]; 30 mg daily synthetic lycopene with docetaxel): approximately 1.6 fold
- Peak concentration of lycopene in plasma at 150 mg/day compared to 30 and 90 mg/day ([1]; Figure 2B): did not further increase the peak concentration
- Mean lycopene concentration in plasma ([1]; after 99 days of treatment): .82 ± .49 µmol/L
- Mean lycopene concentration in plasma ([1]; baseline): .48 ± .37 µmol/L
- Increase of plasma lycopene during treatment ([1]; baseline to 99 days): 93.4%
- Adverse events during lycopene alone lead-in [2]: No participant reported any adverse event
- Change of plasma IGFBP-3 from pretreatment level [3]: no statistically significant differences
- Change of plasma VEGF-A level over time ([4]; lycopene 30 mg/day + docetaxel/ADT): tended to decrease
- Change of plasma VEGF-A level over time ([4]; lycopene 90 mg/day + docetaxel/ADT): little change
- Change of plasma VEGF-A level over time ([4]; lycopene 150 mg/day + docetaxel/ADT): to increase
- Maximum tolerated dose (MTD) of synthetic lycopene ([5]; in combination with docetaxel 75 mg/m^2 and ADT): 150 mg/day
- Dose-limiting toxicity ([5]; in vivo): No DLT
- Probability of toxicity, dose level 1 ([5]; male, human, in vivo): 0
- Probability of toxicity, dose level 2 ([5]; male, human, in vivo): .009
- Probability of toxicity, dose level 3 ([5]; male, human, in vivo): .106
- Change of ligand-dependent phosphorylation of IGF1-R(Y1131) ([6]; 150 mg lycopene daily, day 78, p = .048): borderline decrease
- Change of ligand-dependent phosphorylation of IGF1-R(Y1131) ([6]; 150 mg lycopene daily, day 99, p = .027): significant decrease
- Change of ligand-dependent phosphorylation of IGF1-R(Y1131) ([6]; 30 or 90 mg/day lycopene, day 15 to 99): did not show a consistent change
- Change of CEC number vs pre-treatment ([7]; lycopene 30 mg/day + docetaxel/ADT, all time points): decreased
- Change of CEC number vs pre-treatment ([7]; lycopene 90 mg daily + docetaxel/ADT): increased CEC levels at all time points
- Change of CEC number vs pre-treatment ([7]; lycopene 150 mg daily + docetaxel/ADT): significant increase in CECs only on day 57

Compound: CC(=O)O[C@@]12CO[C@@H]1C[C@H](O)[C@@]1(C)C(=O)[C@H](O)C3=C(C)[C@@H](OC(=O)[C@H](O)[C@@H](NC(=O)OC(C)(C)C)c4ccccc4)C[C@@](O)([C@@H](OC(=O)c4ccccc4)[C@H]21)C3(C)C [docetaxel]
- Alopecia, % any ([8]; any grade): 39%
- Anaemia, % any ([8]; any grade): 99.5%
- Anorexia, % any ([8]; any grade): 17.1%
- Arthralgia, % any ([8]; any grade): 8%
- Constipation, % any ([8]; any grade): 18.1%
- Cough, % any ([8]; any grade): 9.8%
- Diarrhoea, % any ([8]; any grade): 37%
- Dysgeusia, % any ([8]; any grade): 18.1%
- Dyspnoea, % any ([8]; any grade): 9.6%
- Fatigue, % any ([8]; any grade): 28.9%
- Febrile neutropenia, % any ([8]; any grade): 8.3%
- Infection, % any ([8]; any grade): 7.2%
- Nail changes, % any ([8]; any grade): 9%
- Nausea, % any ([8]; any grade): 22.7%
- Neutropenia, % any ([8]; any grade): 89%
- Pain in extremity, % any ([8]; any grade): 9.8%
- Peripheral oedema, % any ([8]; any grade): 20.4%
- Rash/desquamation, % any ([8]; any grade): 5.9%
- Sensory/motor neuropathy, % any ([8]; any grade): 25.1%
- Stomatitis/pharyngitis, % any ([8]; any grade): 13.7%
- Tearing, % any ([8]; any grade): 9.6%
- Thrombocytopenia, % any ([8]; any grade): 32.6%
- Vomiting, % any ([8]; any grade): 11.6%
- Anaemia, % grade 3+ [8]: 5.5%
- Anorexia, % grade 3+ [8]: .3%
- Arthralgia, % grade 3+ [8]: 1%
- Constipation, % grade 3+ [8]: 1%
- Cough, % grade 3+ [8]: 0%
- Diarrhoea, % grade 3+ [8]: 2.3%
- Dysgeusia, % grade 3+ [8]: 0%
- Dyspnoea, % grade 3+ [8]: .3%
- Fatigue, % grade 3+ [8]: .3%
- Febrile neutropenia, % grade 3+ [8]: 8.3%
- Infection, % grade 3+ [8]: 4.1%
- Nausea, % grade 3+ [8]: .8%
- Neutropenia, % grade 3+ [8]: 78.9%
- Pain in extremity, % grade 3+ [8]: 1%
- Peripheral oedema, % grade 3+ [8]: 1.6%
- Sensory/motor neuropathy, % grade 3+ [8]: 2.1%
- Stomatitis/pharyngitis, % grade 3+ [8]: .8%
- Tearing, % grade 3+ [8]: 0%
- Thrombocytopenia, % grade 3+ [8]: 1.6%
- Vomiting, % grade 3+ [8]: .8%
- Plasma docetaxel C max, geometric mean [9]: 2810 ng/mL
- Plasma docetaxel AUClast, geometric mean ([9]; iv, 75 mg/m2): 2810 ng·h/mL
- AUC(0-inf) [10]: 3020 ng·h/mL
- Alopecia, % any ([11]; any grade): 65.1%
- Anaemia, % any ([11]; any grade): 66.5%
- Anorexia, % any ([11]; any grade): 16.6%
- Arthralgia, % any ([11]; any grade): 8.1%
- Cough, % any ([11]; any grade): 12.3%
- Diarrhoea, % any ([11]; any grade): 31.6%
- Dysgeusia, % any ([11]; any grade): 18.4%
- Dyspnoea, % any ([11]; any grade): 15.1%
- Fatigue, % any ([11]; any grade): 53.3%
- Febrile neutropenia, % any ([11]; any grade): 2.7%
- Infection, % any ([11]; any grade): 32.2%
- Nail changes, % any ([11]; any grade): 29.5%
- Nausea, % any ([11]; any grade): 41%
- Neutropenia, % any ([11]; any grade): 40.9%
- Peripheral oedema, % any ([11]; any grade): 18.1%
- Rash/desquamation, % any ([11]; any grade): 6%
- Sensory/motor neuropathy, % any ([11]; any grade): 30.4%
- Stomatitis/pharyngitis, % any ([11]; any grade): 19.6%
- Tearing, % any ([11]; any grade): 9.9%
- Thrombocytopenia, % any ([11]; any grade): 3.4%
- Vomiting, % any ([11]; any grade): 16.9%
- Anaemia, % grade 3+ [11]: 4.9%
- Anorexia, % grade 3+ [11]: 1.2%
- Arthralgia, % grade 3+ [11]: .6%
- Cough, % grade 3+ [11]: 0%
- Diarrhoea, % grade 3+ [11]: 2.1%
- Dysgeusia, % grade 3+ [11]: 0%
- Dyspnoea, % grade 3+ [11]: 2.7%
- Fatigue, % grade 3+ [11]: 4.5%
- Febrile neutropenia, % grade 3+ [11]: 2.7%
- Infection, % grade 3+ [11]: 5.7%
- Nausea, % grade 3+ [11]: 2.7%
- Neutropenia, % grade 3+ [11]: 32%
- Peripheral oedema, % grade 3+ [11]: .3%
- Sensory/motor neuropathy, % grade 3+ [11]: 1.8%
- Stomatitis/pharyngitis, % grade 3+ [11]: .9%
- Tearing, % grade 3+ [11]: .6%
- Thrombocytopenia, % grade 3+ [11]: .6%
- Vomiting, % grade 3+ [11]: 1.5%
- Increased overall survival ([12]; mCRPC): 2.4 months
- Increased overall survival ([12]; mCSPC): 16.8 months
